In a melting point compilation (Tetko et al.; mined from patent text by program, amines drawn as free bases though some values may be those of a salt) one finds melting point data, which are given here for 91 molecules.

Structures are written as SMILES. Some results are limits rather than exact numbers.

Regarding `N#CCSc1ccc([N+](=O)[O-])cc1`, the melting point (commonly the temperature of the solid-liquid transition) lay within 77 to 79 °C.
Under `O=c1cc(C(F)(F)F)ncn1-c1c(Cl)cc(C(F)(F)F)cc1[N+](=O)[O-]` stands 149 to 150 °C.
Under `CC(C)CC(NC(=O)C1CCCN1C(=O)OCc1ccccc1)OCC(=O)O` (stereo unspecified) stands 118 to 120 °C; under `CC(C)(C)OC(=O)N1CC(=NO)C2(CC2)C1`, 117 to 119 °C; under `CC(=O)N1CCC(n2cnc3ccc(-c4nnc(C)o4)cc32)CC1`, 228 to 229 °C.
Under `Cc1c(O)ccc2c(=O)c(-c3ccccc3O)coc12` stands 196 to 198 °C; under `COc1cccc(/C=C/c2ccc(C(=O)O)cc2)c1`, 200 to 205 °C; under `CCCC1=C(C#N)C(c2cccc(Br)c2)c2c[nH]nc2N1` (stereo unspecified), 202 to 205 °C.
`COc1ccc2c(c1)c(=O)c(CO)cn2C`: the melting point lay within 194 to 197 °C.
To `COc1ccc(-c2[nH]nc3c2C(=O)c2c(NC(=O)Nc4ccncc4)cccc2-3)cc1` belongs > 300 °C.
To `Nc1nc(-c2ccc(F)cc2)c(CCN2CCC(n3nnc4cc(F)ccc43)CC2)s1` belongs 234 to 235 °C.
To `C[C@H](NC(=O)c1ccccc1)C(=O)CCl` belongs 120 to 122 °C; to `O=C1Nc2cccnc2N(C(=O)CCN2CCNCC2)c2ccccc21`, 280 to 282 °C; to `Cc1c(NCCN)nc(=O)n(C)c1N`, 186 to 188 °C.
In turn, `O=C(O)C(F)(F)C(F)(F)C(F)(F)C(F)(F)C(F)(F)C(F)(F)C(=O)O` returned a melting point of 142 to 144 °C.
In turn, `NS(=O)(=O)c1ccc(-c2noc(-c3cnc4ccc(-c5ccc(C(F)(F)F)cc5)cn34)n2)s1` showed a melting point of 280 °C.
Under `Cc1c(CO)ncnc1N1CCCC1` stands 112 to 114 °C; under `NC(=S)NN=Cc1ccc(N)cn1`, 205 to 207 °C; under `CCc1nnc2c(Nc3ccc(Cl)cc3OC)nc3ccccc3n12`, 245 to 248 °C.
To `Cc1cc(C)c(NC(=O)N(Cc2ccc3c(c2)Cc2ccccc2-3)C2CCCCC2)c(C)c1` belongs 147 to 149 °C.
To `COc1csc(C)c1N` belongs 61 to 63 °C; to `COc1cccc(-c2cc(Cl)ncn2)c1`, 112 to 115 °C; to `O=Cc1ccccc1C(=O)c1ccccc1`, 64 to 67 °C.
`O=[N+]([O-])c1ccc(-c2ccc(C(O)CCl)o2)cc1` (stereo unspecified) gave a melting point of 111 to 113 °C.
In turn, `CS(=O)(=O)c1ccc(-c2cc(C(=O)c3ccncc3)sc2N2CCOCC2)cc1` yielded a melting point of 128 °C.
Under `Cc1ccc2c(c1)C(C(=O)Nc1c(C(C)C)cccc1C(C)C)c1ccccc1CO2` (stereo unspecified) stands 166 to 167 °C.
To `Cc1oc(-c2ccccc2)nc1COc1ccc2c(-c3ccccc3)c(CO)oc2c1` belongs 152 to 153 °C; to `Cc1cccc(S(=O)(=O)N=CN(C)C)c1C#N`, 168 to 174 °C; to `CC(C)=NNc1nc(C(Cl)(Cl)Cl)ns1`, 66 °C.
To `N#Cc1ccc(OCCc2c[nH]cn2)cc1` belongs 181 to 183 °C; to `O=C1N=c2ccc(OCCBr)cc2=N1`, 225 to 226 °C.
`COc1ccc(OC)c2c1C(=O)C=C(SCCO)C2=O` gave a melting point of 117 to 118 °C.
Under `COc1cc2c(cc1OC)[C@H]([C@H](O)c1ccccc1)OC2=O` stands 113 to 115 °C.
To `Cc1ccc(-c2c(CNC(=O)OC(C)(C)C)n(CC(C)C)c(=O)c3ccc(C(=O)O)cc23)cc1` belongs 230 to 231 °C; to `CCO[C@H](C(=O)N1C(=O)OC[C@@H]1Cc1ccccc1)[C@H](O)c1ccc2oc(Cc3nc(-c4ccccc4)oc3C)cc2c1`, 66 °C; to `CCOc1ccc(-c2c(Cl)c(CN3C(=O)CCC3=O)nc3sc4c(c23)CCNC4)cc1`, 215 to 217 °C.
Under `OC1(c2cccc3[nH]ccc23)CCN(CCOc2ccccc2)CC1` stands 168 °C; under `CCCC1(CCC)c2cc(-c3nc4cc(C)ccc4o3)ccc2-c2cc(O)c(-c3nc4cc(C)ccc4o3)cc21`, 291 to 293 °C; under `NC1=NS(=O)(=O)Nc2cccc(OCC3(NC(=O)c4ccncc4)CCCC3)c21`, > 250 °C.
Consider `Cc1cc(-c2cc(C(F)(F)F)n3ncc(C(=O)Nc4cccc(S(=O)(=O)N5CCOCC5)c4)c3n2)ccc1C(F)(F)F`, for which the melting point was 272 °C.
Under `CC(=O)Nc1ncc(Cc2ccc(Cl)cc2)c(NC(C)=O)n1` stands 147 °C.
Under `CCCc1c(OCCCCCc2c(O)c(O)cc(Cl)c2Cl)ccc(C(=O)O)c1O` stands 159 to 164 °C; under `CCCCN(CCCC)CCCOc1ccc(S(=O)(=O)c2c(-c3ccccc3)noc2C(C)C)cc1`, 53.5 °C; under `CC(=O)c1cccc(-c2nc(Nc3ccc(OC(F)(F)F)cc3)cc(N3CCOCC3)n2)c1`, 218 to 220 °C.
Regarding `COc1ccc(-c2c(SCc3ccncc3)oc3cc(OC)ccc3c2=O)cc1`, the melting point lay in the range of 140 to 141 °C.
To `CN1C(=O)[C@H](NC(=O)CCc2ccc(F)cc2F)N=C(c2ccccc2)c2ccccc21` belongs 79 to 81 °C; to `CC(C)(C)CC(C)(C)NC(=O)Nc1ccccc1CCc1cc(C(C)(C)C)c(O)c(C(C)(C)C)c1`, 168 to 169 °C.
Under `CCc1nc2c(N)nc3ccccc3c2n1CC1(O)CCOC1` (stereo unspecified) stands 245 to 247 °C; under `O=C(O)C=CCCCCCc1cccc2cncn12`, 110 to 111 °C; under `NC(=O)c1cc(F)cc(-c2cccc3cc(Cc4cccc(C(F)(F)F)c4)sc23)c1`, 165 to 166 °C.
Under `CC(C)(C)OC(=O)CN1CCCNc2c1c(=O)c2=O` stands 167 to 168 °C; under `O=c1[nH]c2ccccc2n1CCN1CCC(C(c2ccc(F)cc2)c2ccc(F)cc2)CC1`, 104 to 106 °C; under `CCOC(=O)P(=O)(O)C(=O)OCC`, 150 to 155 °C.
As for `COc1ccc(C(=O)Nc2c(Cl)cncc2Cl)c2c1OC(C)(C)C=C2`, the melting point is 174 to 178 °C.
Under `O=C(Cc1cccs1)NCCCSc1ccncc1` stands 62 to 63 °C.
For `Cc1nc2c(O)c(CC[C@@H](O)c3ccccc3)c(C(=O)N3CCC3)cc2n1C`, the melting point lay in the range of 265 to 266 °C.
Take `CC(C)(C)c1cc(/C=C/C=C/C(=O)NCCN2CCC(c3c[nH]c4ccccc34)CC2)cc(C(C)(C)C)c1O`: the melting point lay within 108 to 115 °C.
To `COC(=Cc1ccc(-c2cccc(N(C)C(=O)NC3CCCCC3)c2)cc1)C(=O)O` belongs 192 °C; to `CN(C)C(=O)Sc1ccc2ncc([N+](=O)[O-])c(-c3ccccc3)c2c1`, 171 to 173 °C.
To `CN(CC(C)(C)c1ccc(Cl)c(Cl)c1)C(=O)Nc1c(F)cc(F)cc1CCc1cc(C(C)(C)C)c(O)c(C(C)(C)C)c1` belongs 145 to 147 °C; to `O=C(O)C(Cc1ccccc1)Nc1cc(-c2ccc(CCc3ccccc3)cc2)ncn1` (stereo unspecified), 216 to 218 °C; to `COC(=O)c1ccc2c(c1)SCCCC2NC(=O)OCc1ccccc1` (stereo unspecified), 132 to 134 °C.
Under `CC1(OCc2ccccc2Cl)COC(CCl)OC1` (stereo unspecified) stands 53 to 54 °C; under `COc1cc2cc(COC(C)=O)c(COC(C)=O)c(C)c2cc1OC`, 130 to 131 °C; under `CCOC(=O)CCNC(=O)c1cn2nc(Cl)ccc2n1`, 132 to 134 °C.
In turn, `CCOC(=O)C1CCc2c([nH]c3ccc(N)cc23)C1` (stereo unspecified) yielded a melting point of 123 to 124 °C.
Under `c1csc(OCCOc2ccc3ccccc3c2)c1` stands 129 to 130 °C; under `O=C(N1CCCCC1)N1CC(Oc2cccc(C(F)(F)F)c2)C1`, 50 to 52 °C; under `CCOCc1nc2c(N)nc(C)c(C)c2n1NC(C)C`, 110 to 120 °C.
Under `OCC1=Cc2cc3ccccc3n2CC1` stands 139 to 142 °C; under `CC(=CC(=O)O)c1cccc([N+](=O)[O-])c1`, 147 to 149 °C; under `CCOC(=O)C(C#N)=C1CCN(c2ccc(N3C[C@H](CNC(C)=O)OC3=O)cc2F)CC1`, 165 to 169 °C.
Under `CN1CC(O)N(c2nnc(SCc3cccs3)s2)C1=O` (stereo unspecified) stands 129 to 132 °C; under `Cn1c(=O)n(C2CCNCC2)c2ccc(Cl)cc21`, 201 °C.
On to `Cc1cc(C)n(Cc2ccc(Cl)cc2Cl)c1C=O`, for which the melting point was 88 to 89 °C.
Under `N#CN=C(Nc1cccnc1)NC1CCCCC1` stands 185 to 186 °C.
Take `Cc1[nH]c(/C=C2\C(=O)Nc3ccc(F)cc32)c(C)c1C(=O)NCCCCCC(=O)NO`: the melting point amounted to 210 °C.
To `CCOC(=O)C(=CN(C)C)C(=O)Nc1ccc(Br)cc1C` belongs 88 to 90 °C; to `CS(=O)(=O)c1ccc(-n2cnc(Cl)c2-c2ccc(Cl)c(Cl)c2)cc1`, 156 to 157 °C.
Under `CN1CCCC1CCOc1ccc(-c2nnc(CSCCOc3ccccc3)o2)cc1` (stereo unspecified) stands 46 to 50 °C; under `O=C(CCCO)N1CCCCC1`, 31 to 33 °C; under `CCCCCCCNC(=O)Nc1ccc([N+](=O)[O-])cc1C(=O)NC1CCN(C(c2ccccc2)c2ccccc2)CC1`, 165 to 166 °C.
As for `ON=C1CCn2c(-c3ccc(Br)cc3)nc3c(Cl)ccc1c32`, the melting point was > 250 °C.
Under `O=C(NCCCCCCO)OCc1ccccc1` stands 67 to 68 °C; under `CCN1CCCC1CNC(=O)c1cc(NS(=O)(=O)NC(C)(C)C)c(C)cc1OC` (stereo unspecified), 167 to 168 °C.
Under `O=C1NC(O)C2CN(Cc3ccccc3)CC12` (stereo unspecified) stands 138 °C; under `CC(=O)C(=NO)c1ccc(F)cc1F`, 126 to 129 °C.
To `CCc1nc(NC(=O)c2cc(Br)ccc2O)sc1-c1ccccc1` belongs 224 to 225 °C; to `Cn1nc(Cl)c(Cl)cc1=O`, 97 °C; to `CC(C)N(C(=O)C(Cc1ccc(C#N)cc1)NC(=O)OC(C)(C)C)C(C)C` (stereo unspecified), 172 °C.
`COc1ccc(NC(=O)c2ccc(Br)cc2)cc1N1CCN(C(=O)OC(C)(C)C)CC1` displayed a melting point of 156 to 158 °C.
